The values that follow come from patent US8779140B2, “Crystal of fused pyridine compound salt” (Astellas Pharma Inc., priority 2010, dated 2014).

Usually Solubility stands for the dissolved amount per volume that the medium holds. Read a high Solubility as much dissolved substance.

Data set [1] can be described thus: Stability test of crystals (storage at 70° C., 70° C./75% RH, Xe lamp; HPLC related substances and powder X-ray diffraction). The settings on record: for Physical stability / change in the crystal forms: stored at 70° C. or 70° C.·75% RH for 2 weeks.
Protocol: A sample was stored with light-shielding under the condition of 70° C., 70° C.·75% RH for 2 weeks. The total amount of the related substance after storage was measured using HPLC, and the change in crystal forms was measured by means of powder X-ray diffraction.
The test drug was stored under the following conditions.
Initial (Stored under the cooling conditions): About 5 mg was collected with a 10 mL centrifuge tube and stored in a refrigerator.
70° C. (stored at 70° C.): About 5 mg was collected with a 10 mL centrifuge tube and stored in a mini-jet oven at 70° C. for 14 days.
70° C.·75% RH (stored at 70° C. and 75% relative humidity): About 5 mg was collected with a 10 mL centrifuge tube, a sample was put into a desiccator at 75% relative humidity in the open state, and the desiccator was stored in a mini jet oven at 70° C. for 14 days.
Xe lamp: This product was placed in a plastic Petri dish and stored for 40 hours under a Xe lamp (25° C. RH 60%, total irradiance 1,200,000 lx·h, total near-ultraviolet radiation energy 200 W·h/m^2 or more).
Initial, a product stored at 70° C. and a product stored at 70° C. and 75% RH were dissolved in a mixed solution (1:1) of MeCN for LC/water to exactly 10 mL, which was used as a sample solution.
HPLC; Detector: ultraviolet absorptiometer (wavelength measurement; 254 nm), column: Inertsil ODS-3 (particle diameter 3 μm, 2.1 mm×100 mm), column temperature: 40° C. (column thermostat vessel was used), mobile phase: Liquid A—1000 mL of water was added to perchlorate buffer at pH 2.5 {sodium perchlorate (NaClO4.H2O) (1.40 g) for dissolution, and adjusted to a pH of 2.5 with diluted perchloric acid (dilution of 100 mL of a commercially available 60% perchloric acid solution with 1900 mL of water)}. Liquid B—MeCN for LC, flow rate: 0.2 mL/min, Injection amount: 1 μL, (gradient setting: Liquid B 10% at 0.0 minutes to Liquid B 90% at 35 minutes).
Powder X-ray diffraction; tube: Cu, tube current: 300 mA, tube voltage, 50 kV, sampling width: 0.02°, scan speed: 4°/min, wavelength: 1.54056 angstroms, measured diffraction angle range (2θ): 2.5 to 40°
A further data set deals with T1, JAK3 (Homo sapiens, UniProt P52333).
T1 sequence (P52333 1-1124): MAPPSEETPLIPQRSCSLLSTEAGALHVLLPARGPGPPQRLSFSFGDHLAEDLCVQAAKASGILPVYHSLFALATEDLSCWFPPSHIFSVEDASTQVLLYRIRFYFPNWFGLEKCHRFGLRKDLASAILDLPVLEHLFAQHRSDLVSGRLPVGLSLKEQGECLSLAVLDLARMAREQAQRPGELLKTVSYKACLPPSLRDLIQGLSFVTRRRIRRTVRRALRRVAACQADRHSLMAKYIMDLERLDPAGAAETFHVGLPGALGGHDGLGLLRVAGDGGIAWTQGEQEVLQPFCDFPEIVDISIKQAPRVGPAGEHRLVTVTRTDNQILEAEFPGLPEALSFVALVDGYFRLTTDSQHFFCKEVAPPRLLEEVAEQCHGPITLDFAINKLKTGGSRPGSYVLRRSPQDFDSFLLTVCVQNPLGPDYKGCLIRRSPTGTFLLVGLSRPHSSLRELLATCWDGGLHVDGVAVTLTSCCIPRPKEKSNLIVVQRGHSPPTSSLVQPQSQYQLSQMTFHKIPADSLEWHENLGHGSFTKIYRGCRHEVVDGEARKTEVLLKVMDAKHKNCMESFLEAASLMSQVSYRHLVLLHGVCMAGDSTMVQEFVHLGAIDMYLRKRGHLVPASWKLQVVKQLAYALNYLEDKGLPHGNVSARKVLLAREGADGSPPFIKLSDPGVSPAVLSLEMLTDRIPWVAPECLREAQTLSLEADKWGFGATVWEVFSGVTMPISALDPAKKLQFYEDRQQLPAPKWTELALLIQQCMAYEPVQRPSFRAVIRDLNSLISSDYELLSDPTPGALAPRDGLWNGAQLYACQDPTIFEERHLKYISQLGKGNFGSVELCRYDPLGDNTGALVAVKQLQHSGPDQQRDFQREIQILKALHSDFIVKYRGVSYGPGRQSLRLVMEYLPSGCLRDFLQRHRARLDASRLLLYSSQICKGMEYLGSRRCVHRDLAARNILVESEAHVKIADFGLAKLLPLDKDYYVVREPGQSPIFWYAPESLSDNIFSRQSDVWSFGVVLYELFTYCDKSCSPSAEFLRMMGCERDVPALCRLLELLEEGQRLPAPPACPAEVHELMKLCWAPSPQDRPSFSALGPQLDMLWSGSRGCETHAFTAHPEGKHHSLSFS
The settings on record: as described in Patent Document 1; cited from earlier work.

Data set [2] is described as follows: Solubility test in 84% aqueous EtOH solution. Type of data set: physicochemical. As to the method:
After stirring, the supernatant was filtered and the concentration of the filtrate was quantified by means of HPLC.
HPLC; Columns to be charged: Unison UK Phenyl (manufactured by Imtakt Corporation), particle diameter 3 μm, 4.6 mm×250 mm
Mobile phase: perchlorate buffer at pH 2.5 (0.01 mol/L)^(note)/mixed solution with MeCN for LC (4:1),
Flow rate of mobile phase: about 1.0 mL/min. Detector: ultraviolet absorptiometer (wavelength for measurement: 235 nm), column temperature: 50° C. (column thermostat vessel was used)

The conditions of data set [3]: stirred at room temperature in a 84% EtOH solution.
Description: The Form A61 crystals were stirred at room temperature and transition of crystal forms was attempted in a 84% EtOH solution.
Setting [4] is: 70° C. 75% RH, 2 weeks, Table 1, hydrobromide.
[5] abbreviates: 70° C., 2 weeks, Table 1, hydrobromide.
The mark [6] stands for this setting: Initial (stored in a refrigerator), Table 1, hydrobromide.
The mark [7] stands for this setting: Xe lump 40H, Table 1, hydrobromide.
[8] abbreviates: 70° C. 75% RH, 2 weeks, Table 1.
[9] abbreviates: Initial (stored in a refrigerator), Table 1.

On to `NC(=O)c1cnc2[nH]ccc2c1N[C@@H]1[C@@H]2CC3C[C@H]1C[C@@](O)(C3)C2` [Ex. 121, 4-{[(1R,2s,3S,5s,7s)-5-hydroxy-2-adamantyl]amino}-1H-pyrrolo[2,3-b]pyridine-5-carboxamide], for which the “Stability with respect to temperature and humidity” value in data set [1] (crystallized free form) was “not stable with respect to temperature and humidity even when crystallized”. Further, the JAK3 inhibitory activity entry on JAK3 is on record as “excellent activity”.
Consider `NC(=O)c1cnc2[nH]ccc2c1N[C@@H]1[C@@H]2C[C@@H]3C[C@H]1C[C@@](O)(C3)C2.O=C(O)CCC(=O)O` [Form A24, 4-{[(1R,2s,3S,5s,7s)-5-hydroxy-2-adamantyl]amino}-1H-pyrrolo[2,3-b]pyridine-5-carboxamide succinate], for which the “LC: total amount of the related substances” value (“LC: total amount” below) was 0.19% in data set [1] (70° C. 2 W, Table 3); 0.25% in data set [1] (70° C. 75% RH 2 W, Table 3); 0.25% in data set [1] (Initial, Table 3); 0.19% in data set [1] (Xe lump 40H, Table 3).
For the compound `Cl.NC(=O)c1cnc2[nH]ccc2c1N[C@@H]1[C@@H]2C[C@@H]3C[C@H]1C[C@@](O)(C3)C2` [Form A33, 4-{[(1R,2s,3S,5s,7s)-5-hydroxy-2-adamantyl]amino}-1H-pyrrolo[2,3-b]pyridine-5-carboxamide monohydrochloride], the “LC: total amount” value in data set [1] (70° C. 2 W, Table 3) is 0.48%; in data set [1] (70° C. 75% RH 2 W, Table 3) it was 0.48%; in data set [1] (Initial, Table 3) it was 0.49%; in data set [1] (Xe lump 40H, Table 3), 0.79%.
Regarding `Cl.NC(=O)c1cnc2[nH]ccc2c1N[C@@H]1[C@@H]2C[C@@H]3C[C@H]1C[C@@](O)(C3)C2.O` [Form A34, 4-{[(1R,2s,3S,5s,7s)-5-hydroxy-2-adamantyl]amino}-1H-pyrrolo[2,3-b]pyridine-5-carboxamide monohydrochloride hydrate], the “LC: total amount” value in data set [1] (70° C. 2 W, Table 3) was determined as 0.10%; in data set [1] (70° C. 75% RH 2 W, Table 3), 0.10%; in data set [1] (Initial, Table 3) it was 0.10%; in data set [1] (Xe lump 40H, Table 3), 0.30%.
As for `Br.NC(=O)c1cnc2[nH]ccc2c1N[C@@H]1[C@@H]2C[C@@H]3C[C@H]1C[C@@](O)(C3)C2` [Form A36, 4-{[(1R,2s,3S,5s,7s)-5-hydroxy-2-adamantyl]amino}-1H-pyrrolo[2,3-b]pyridine-5-carboxamide monohydrobromide], the “LC: total amount” value is 0.28% in data set [1] (70° C. 75% RH, 2 weeks, Table 1, monohydrobromide); 0.34% in data set [1] (70° C., 2 weeks, Table 1, monohydrobromide); 0.43% in data set [1] (Initial (stored in a refrigerator), Table 1, monohydrobromide); 0.76% in data set [1] (Xe lump 40H, Table 1, monohydrobromide).
Regarding `Br.NC(=O)c1cnc2[nH]ccc2c1N[C@@H]1[C@@H]2C[C@@H]3C[C@H]1C[C@@](O)(C3)C2` [Form A61, 4-{[(1R,2s,3S,5s,7s)-5-hydroxy-2-adamantyl]amino}-1H-pyrrolo[2,3-b]pyridine-5-carboxamide hydrobromide], the “LC: total amount” value in data set [1] (setting [4]) stood at 0.43%; in data set [1] (setting [5]) it was 0.44%; in data set [1] (setting [6]), 0.44%; in data set [1] (setting [7]), 0.77%. Besides, the “Physical stability / change in the crystal forms” value (from here on “Physical stability / change”) in data set [1] is on record as “physically stable”. Moreover, the Solubility came to 37.2 mg/mL in data set [2] (25° C., hydrobromide); 45.5 mg/mL in data set [2] (35° C., hydrobromide); 53.8 mg/mL in data set [2] (50° C., hydrobromide). In data set [3], the “Transition of crystal form” value was “underwent transition to a Form B45 after 4 hours”.
As for `Br.NC(=O)c1cnc2[nH]ccc2c1N[C@@H]1[C@@H]2C[C@@H]3C[C@H]1C[C@@](O)(C3)C2` [Form A87, 4-{[(1R,2s,3S,5s,7s)-5-hydroxy-2-adamantyl]amino}-1H-pyrrolo[2,3-b]pyridine-5-carboxamide hydrobromide], the “LC: total amount” value in data set [1] (setting [4]) is given as 1.51%; in data set [1] (setting [5]), 1.64%; in data set [1] (setting [6]), 1.60%; in data set [1] (setting [7]) it was 1.32%. The “Physical stability / change” value in data set [1] is “physically stable”. Besides, the Solubility in data set [2] (25° C., hydrobromide) is 36.8 mg/mL; in data set [2] (35° C., hydrobromide), 46.0 mg/mL; in data set [2] (50° C., hydrobromide), 48.9 mg/mL.
Take `Br.NC(=O)c1cnc2[nH]ccc2c1N[C@@H]1[C@@H]2C[C@@H]3C[C@H]1C[C@@](O)(C3)C2.O` [Form B11, 4-{[(1R,2s,3S,5s,7s)-5-hydroxy-2-adamantyl]amino}-1H-pyrrolo[2,3-b]pyridine-5-carboxamide hydrobromide monohydrate]: the “LC: total amount” value in data set [1] (setting [8]) is on record as 0.43%; in data set [1] (70° C., 2 weeks, Table 1) it was 0.43%; in data set [1] (setting [9]), 0.43%; in data set [1] (Xe lump 40H, Table 1), 0.48%. The Solubility amounted to 35.0 mg/mL in data set [2] (25° C.), 44.1 mg/mL in data set [2] (35° C.) and 60.1 mg/mL in data set [2] (50° C.).
On to `Br.NC(=O)c1cnc2[nH]ccc2c1N[C@@H]1[C@@H]2C[C@@H]3C[C@H]1C[C@@](O)(C3)C2.O.O` [Form B21, 4-{[(1R,2s,3S,5s,7s)-5-hydroxy-2-adamantyl]amino}-1H-pyrrolo[2,3-b]pyridine-5-carboxamide hydrobromide dihydrate], for which the “LC: total amount” value in data set [1] (setting [8]) amounted to 0.05%; in data set [1] (70° C., 2 weeks, Table 1), 0.05%; in data set [1] (setting [9]) it was 0.00%; in data set [1] (Xe lump 40H, Table 1), 0.05%. In addition, the Solubility in data set [2] (25° C.) was 36.1 mg/mL; in data set [2] (35° C.) it was 46.3 mg/mL; in data set [2] (50° C.), 58.2 mg/mL.
On to `Br.NC(=O)c1cnc2[nH]ccc2c1N[C@@H]1[C@@H]2C[C@@H]3C[C@H]1C[C@@](O)(C3)C2` [Form B45, 4-{[(1R,2s,3S,5s,7s)-5-hydroxy-2-adamantyl]amino}-1H-pyrrolo[2,3-b]pyridine-5-carboxamide hydrobromide], for which the “LC: total amount” value in data set [1] (setting [4]), in data set [1] (setting [5]), in data set [1] (setting [6]) and in data set [1] (setting [7]) was 0.11% in each case. The “Physical stability / change” value in data set [1] is recorded as “physically stable”. Besides, the “Solubility rank among crystal forms” value in data set [2] is given as “lowest solubility crystal form”. In addition, the Solubility was 23.7 mg/mL in data set [2] (25° C., hydrobromide); 29.4 mg/mL in data set [2] (35° C., hydrobromide); 36.7 mg/mL in data set [2] (50° C., hydrobromide).
As for `NC(=O)c1cnc2[nH]ccc2c1N[C@@H]1[C@@H]2CC3C[C@H]1C[C@@](O)(C3)C2` [anhydride in a free form, reference compound], the “Change of crystal on storage” value in data set [1] (with humidity at 70° C.) is “changed to hydrate”.
In the case of `Br.NC(=O)c1cnc2[nH]ccc2c1N[C@@H]1[C@@H]2C[C@@H]3C[C@H]1C[C@@](O)(C3)C2` [hydrobromide, 4-{[(1R,2s,3S,5s,7s)-5-hydroxy-2-adamantyl]amino}-1H-pyrrolo[2,3-b]pyridine-5-carboxamide hydrobromide], the “Storage stability in a solid state” value in data set [1] is recorded as “excellent storage stability in a solid state”.
